Read-outs that look alike come from different tables or passages of the source.
Experiments:
[1] = test system: relapsed or refractory DLBCL; details: cited from earlier work
[2] = L-MIND phase 2 study: safety (adverse events)
Procedure: MOR00208 was administered intravenously at a dose of 12 mg/kg, over approximately 2 hours. For cycles 1 to 3, MOR00208 was administered weekly on days 1, 8, 15, and 22; an additional loading dose was administered on day 4 of cycle 1. […] Patients self-administered lenalidomide orally, starting with 25 mg daily on days 1-21 of each 28-day cycle. A step-wise dose reduction (decrease by 5 mg/day in each step, only once per cycle, without re-escalation) of lenalidomide was permitted in case of protocol-defined toxicities.
Efficacy analyses are based on the full analysis set comprising all patients who received at least one dose of both MOR00208 and lenalidomide; safety analyses were based on those who received at least one dose of either study medication.

| Molecule | Objective response rate ([1]; prior studies in similar populations) | Objective response rate ([1]; single-agent, relapsed or refractory DLBCL (Ann. Oncol. 29, 1266-1272, 2018)) | Grade 3 or 4 neutropenia ([2]; MOR00208 monotherapy after discontinuation of lenalidomide, 6/51 patients) | Adverse events of grade 3 or 4 ([2]; after lenalidomide discontinuation, 15/51 patients) |
| --- | --- | --- | --- | --- |
| Nc1cccc2c1CN(C1CCC(=O)NC1=O)C2=O (stereo not shown) [lenalidomide] | 28% |  |  |  |
| MOR00208: Fc-enhanced humanized anti-CD19 monoclonal antibody, sequences in Table 1 (SEQ ID NO: 1-12) |  | 26% | 11.8% | 29.4% |

— patent publication US20210130460A1, “ANTI-CD19 THERAPY IN COMBINATION WITH LENALIDOMIDE FOR THE TREATMENT OF LEUKEMIA OR LYMPHOMA” (MORPHOSYS AG, priority 2019, published 2021)
